Data: US10548894B2, “Combination therapy” (Array BioPharma Inc., priority 2013, dated 2020)

Columns and labels:
Format in all cases: cell-based
[1] = test system: COLO 741; assay: xCELLigence real-time impedance growth assay; conditions: Formula (I) 500 nM, Compound H 1 uM
Description: (§1) Shown is the growth in real time of the (Top A) COLO 741 and (Bottom B) SK-MEL-5 cell lines as measured using the xCELLigence impedance-based cell analyzer as discussed in Example 5. Where indicated FGF2 and Compound H were supplemented to the media at concentrations of 100 ng/ml, and 1 uM, respectively. The Compound of Formula (I) was used at 500 nM in (A) and 100 nM (B).
(§2) For CellTiter-Glo™ assays, cells were dispensed into tissue culture treated 96-well plates (Costar, catalog number 3904) with a final volume of 80 μL of medium and at density of 3000 cells per well. 12 to 24 hrs after plating, 20 μL of each compound dilution series were transferred to plates containing the cells, resulting in compound concentration ranges of 2700 nM to 3.7 nM by 3-fold dilutions and a final DMSO concentration of 0.16%. The total volume in each well was […]. Plates were incubated for 72 hrs and the effects of compounds on cell proliferation was determined using the CellTiter-Glo™ Luminescent Cell Viability Assay (CTG, Promega) and a Victor™ X4 plate reader (Perkin Elmer). For real-time growth assays cells were seeded into xCELLigence E-plates (Roche catalogue number 05232368001) at a density of 4000 cells per well in a total of 90 μl of media and 24 hrs after plating, 11 μl of media with or without compound was added to the wells. 2-4 replicate wells were plated for all cell lines and treatment groups with the exception of LGX818+FGF2 treated COLO 741 cells (N=1). Where indicated final concentrations of compounds and growth factor were 1 uM for Compound H, 100 ng/ml for FGF2, and either 100 nM (SK-MEL-5) or 500 nM (COLO 741) for the Compound of Formula (I). Cells were continuously monitored every two hours for seven days with the xCELLigence real-time impedance based cell analyzer. Impedance was measured using the electrodes on the E-plates, with increasing surface area coverage of cells creating greater electrode impedance. […] In all cases cell index values were normalized to a timepoint immediately following the addition of compound.
(§3) To determine whether rescue of BRAFV600E melanoma cell lines by FGF2 was dependent on FGFR signaling, we examined whether the selective FGFR inhibitor Compound H could prevent FGF2-mediated rescue. Two cell lines which were rescued to varying degrees by FGF2 (COLO 741, and SK-MEL-5, Table 8-1) were cultured in media containing the Compound of Formula (I) and FGF2 either in the presence or absence of Compound H and growth measured in real time.

[2] = test system: SK-MEL-5; assay: xCELLigence real-time impedance growth assay; conditions: Formula (I) 100 nM, Compound H 1 uM
Description: as §1, §2, §3

[3] = test system: MAPK and PIK3C signaling in COLO 741 cells; assay: Western analysis of phosphorylated MEK1/2, ERK1/2 and AKT; conditions: for Phosphorylated levels of AKT: 100 nM
Description: (§4) FIG. 4—The effect on signaling of combining the Compound of Formula (I) with the FGFR inhibitor Compound H and the FGFR ligand FGF2 in two BRAFV600E mutant melanoma-derived cell lines in vitro. Shown is western analysis of both phosphorylated and total AKT, ERK1/2, and MEK1/2 proteins isolated from (A) […] and (B) SK-MEL-5 cells following treatment with the Compound of Formula (I) (100 nM), FGF2 (100 ng/ml), and Compound H (1 uM). Cells were treated for 2 and 24 hours with agents singly and in combination as discussed in Example 5.
(§5) For Western analysis, cells were plated in 6-well (Costar, catalog number 3506) plates at a density of 5×10^5 cells per well in 2.0 ml of complete culture medium. Twelve to 24 hrs after plating, cells were treated with the various compounds, and in all experiments the Compound of Formula (I), Compound H, and FGF2 were used at final concentrations of 100 nM, 1.0 uM, and 100 ng/ml, respectively. Cells were harvested 2, and 24 hrs following the addition of compound in freshly prepared cell lysis buffer (Cell Signaling Technology Catalog number 9803); supplemented with both phosphatase (PhosStop, Roche Catalog number 04906845001) and protease inhibitors (Roche, catalog number 11697498001). Proteins from cell lysates were separated by electrophoresis though a NuPAGE 4-12% Bis-Tis midi gel (Novex, catalog number WG1402BX10), transferred to nitrocellulose membranes, which were subsequently incubated with antibodies from Cell Signaling Technology (Danvers, Mass., USA) recognizing p-AKT (S473, Catalog number 4058), total AKT (Catalog number 2920), p-ERK1/2 (T202/Y204, catalog number 9101), total ERK1/2 (catalog number 9107), p-MEK1/2 (S217/221, catalog number 9121) and β-actin (Ambion, catalog number AM4302). Western blots were visualized following incubation with IRDye 680RD Goat anti-Rabbit IgG (Li-Cor, Catalog number 926-68071) and IRDye 800 CW Goat anti-Mouse IgG (Li-Cor, Catalog number 926-32210) and scanning with an Odyssey Infrared Imager System (Li-Cor, Lincoln, Nebr., USA).
(§6) To investigate whether either restored MAPK or activated PIK3C signaling might underlie FGF2-mediated rescue the effects of FGF2 on MAPK and PIK3C signaling were examined via western-blot analysis of phosphorylated MEK1/2 (MAP2K1/2), ERK1/2 (MAPK1/2) and AKT1/2/3.

[4] = test system: MAPK and PIK3C signaling in SK-MEL-5 cells; assay: as above
Description: as §4, §5, §6

With COC(=O)N[C@@H](C)CNc1nccc(-c2cn(C(C)C)nc2-c2cc(Cl)cc(NS(C)(=O)=O)c2F)n1 [Compound of Formula (I)] the “growth in real time (cell index)” value ([1]; COLO 741, FGF2 100 ng/ml) was “growth suppression was abrogated”, the “growth in real time (cell index)” value ([1]; COLO 741, absence of FGF2) was “suppressed the growth” and the “growth in real time (cell index)” value ([2]; SK-MEL-5, FGF2 100 ng/ml) was “growth suppression was abrogated”. The “growth in real time (cell index)” value ([2]; SK-MEL-5, absence of FGF2) was “suppressed the growth”, the “MAPK signaling (phosphorylated MEK and ERK levels)” value ([3]; COLO 741, 2 and 24 hours, no FGF2, Formula (I) 100 nM, Compound H 1.0 uM) was “marked suppression of MAPK signaling” and the “Phosphorylated levels of AKT” value ([3]; COLO 741, 2 hours) was “unaffected”. The “Phosphorylated levels of AKT” value ([3]; COLO 741, 24 hrs) was “modest decreases”, the “levels of phosphorylated MEK and ERK” value ([3]; COLO 741, with FGF2 100 ng/ml, 24 hrs) was “largely, although not completely, restored” and the “changes in signaling relative to Compound of Formula (I) alone” value ([3]; COLO 741, with FGF2 100 ng/ml, two hours) was “minimal changes”. The “MAPK signaling (phosphorylated MEK and ERK levels)” value ([4]; SK-MEL-5, 2 and 24 hours, no FGF2, Formula (I) 100 nM, Compound H 1.0 uM) was “marked suppression of MAPK signaling”, the “Phosphorylated levels of AKT” value ([4]; SK-MEL-5, 2 hours, 100 nM) was “unaffected” and the “levels of phosphorylated MEK and ERK” value ([4]; SK-MEL-5, with FGF2 100 ng/ml, 24 hrs) was “largely, although not completely, restored”. For the same compound, the “changes in signaling relative to Compound of Formula (I) alone” value ([4]; SK-MEL-5, with FGF2 100 ng/ml, two hours) was “minimal changes”.
